Reference: US20240352414A1, “THREE-DIMENSIONAL DIRECT NEURONAL REPROGRAMMING TO MODEL ALZHEIMER'S DISEASE IN HUMAN NEURONS” (Washington University, priority 2023, published 2024)

What was measured:
Type in all cases: cell-based, human
ADAD spheroids [1] = experiment: Aβ deposition by whole mount immunostaining (6E10) in ADAD spheroids; conditions: ADAD spheroids treated from PID16 to 28; 5 μM β-secretase inhibitor IV or 40 μM DAPT; immunostained at PID28
Procedure: (§1) β-secretase inhibitor IV (cat #565788), DAPT (cat #D5942), and lamivudine (3TC) (cat #PHR1365) were purchased from Millipore Sigma. To make the stock solution, 5 mM β-secretase inhibitor IV and 40 mM DAPT were dissolved in DMSO and 100 mM 3TC was dissolved in sterile water. For thin gel culture, 2.5 μM β-secretase inhibitor IV, 20 μM DAPT, or 100 μM 3TC was added to the fresh media and used for half media changes starting at PID16 or PID22. For spheroids culture, 5 μM β-secretase inhibitor IV, 40 μM DAPT, or 100 μM 3TC was added to the fresh media and used for half media changes starting at PID16 or PID22.
(§2) Whole mount immunofluorescence staining of spheroid: For whole-mount immunostaining of neuronal spheroid, 3D cell culture clearing kit (abcam: ab243299) was used with modifications. Briefly, fixed spheroids on transwell inserts were permeabilized by sequential dehydration and rehydration using different concentrations of ethanol. […]
(§3) For quantification of the total volume of Aβ deposits, volume and area of the spheroid, co-localization analysis in tau related pathologies, and number of TUNEL positive cells or total cells, the “surface” module in Imaris was used for 3D reconstruction and quantification. […]

ADAD 3D-CNs = experiment: p-tau (AT8) and K63-ubiquitin/p-tau (PHF1) immunostaining in ADAD 3D-CNs; conditions: ADAD 3D-CNs treated with β-secretase inhibitor IV or DAPT
Procedure: as §1
Immunofluorescence staining of thin gel: The fixed thin gel cultures were permeabilized in PBST (0.2% (vol/vol) TritonX-100 in PBS) at room temperature for 1h and blocked with blocking buffer (5% (wt/vol) BSA, 2% (wt/vol) normal goat serum, and 0.2% (vol/vol) TritonX-100) overnight at 4° C. The blocking buffer was removed from thin gel culture plates and primary antibodies diluted in blocking buffer were added to the plate followed by incubation overnight at 4° C. with gentle rocking. After washing 5 times with PBST, the cells were then incubated with secondary antibodies diluted in blocking buffer at room temperature for 3-5 hours or 4° C. overnight. Cells were washed 5 times with PBST, incubated with DAPI (Sigma) for 20 min at room temperature if needed and sealed with a drop of anti-fade prolong gold reagent (Life technology). Plates were sealed with parafilm and stored at 4° C. before imaging. The immunofluorescence images were taken by Leica SP5X white light laser confocal system.
(§4) For quantification of the total volume of Aβ deposits, volume and area of the spheroid, co-localization analysis in tau related pathologies, and number of TUNEL positive cells or total cells, the “surface” module in Imaris was used for 3D reconstruction and quantification. For measuring the intensity of neurite outgrowth in spheroid, Image J was used by measuring the mean intensity at each region (distal, middle, and proximal).

ADAD spheroids [2] = experiment: Cell death (TUNEL staining) in ADAD spheroids; conditions: ADAD spheroids at PID28, treatment starting at PID16
Procedure: as §1, §4
TUNEL assay: DeadEND Fluorometric TUNEL system kit was purchased from Promega (G3250) and TUNEL assay was performed according to the manufacturer's description. Briefly, the cryosections of neuronal spheroids were permeabilized by 0.2% TritonX-100 in PBS for 5 mins followed by two 5 mins washes in PBS. […]

LOAD spheroids = experiment: Aβ deposition by whole mount immunostaining (6E10) in LOAD spheroids; conditions: treatment started at PID22 (after onset of Aβ deposition), examined at PID28
Procedure: as §1, §2, §3

Molecule	Aβ deposition (ADAD spheroids [1])	K63-ubiquitin+p-tau (PHF1) level (ADAD 3D-CNs)	p-tau (AT8) level (ADAD 3D-CNs)	cell death / neuronal death (ADAD spheroids [2])	reduction of Aβ deposition (LOAD spheroids)	effect on Aβ deposition (LOAD spheroids)
C[C@H](NC(=O)Cc1cc(F)cc(F)c1)C(=O)N[C@H](C(=O)OC(C)(C)C)c1ccccc1 [DAPT]	reduction	significant reduction	significant reduction	reduced	~30%	–
β-secretase inhibitor IV	reduction	significant reduction	significant reduction	reduced	–	non-significant effect
